Columns and labels:
[1] = system: monkey ES cell line (CMK 6.4 cynomolgus monkey ES cells); experiment: Screening of library compounds: GFP expression under alpha-MHC promoter, 96-well plates; type: cell-based; conditions: about 1 to 5 μM compound/well during day 6 to 14; HCS system
Procedure: A vector expressing green fluorescent protein (GFP) under control of promoter of α-MHC gene, a marker of cardiac muscle cell differentiation, was introduced into monkey ES cell line (CMK 6.4 cynomolgus monkey ES cells) and the cells were seeded on 96-well culture plates (Greiner/655090: 96 well FIA black plate) in 5.0×10^3 cells/well, and cultured for 14 days in an IMDM-based differentiation medium for cardiac muscle cells (200 ml. IMDM (Sigma 13390) containing 50 ml bovine fetal serum (GIBCO 10099-141), 2.5 ml MEM non-essential amino acid solution (Sigma M7145), 2.5 ml penicillin-streptomycin (GIBCO 15140), 2.5 ml 200 mM L-glutamine, 2 μl 2-mercaptoethanol (Sigma M7522), 255 μl 5N NaOH). During day 6 to 14 of culture, 9,600 library compounds were added into separate wells (about 1 to 5 μM compound/well). Then, at […] of culture, GFP expression level was determined by using HCS (high contents screening) system (Molecular device/MetaMorph imaging system).

[2] = system: Monkey ES cells; experiment: Cardiac muscle cell differentiation of monkey ES cells, 6-well plate, GFP expression observed at day 14; type: cell-based; conditions: 10 μM during day 4 to 10; GFP at day 14
Source text: In the same manner as Example 2, the effects of promoting cardiac muscle cell differentiation were compared among KY02111 and N11474, known Wnt signaling inhibitors (IWP2, XAV939 and IWR1), proteins known to be effective in promoting cardiac muscle cell differentiation (G-CSF, IGFBP4, Dkk1 and cytokines (a mixture of bFGF, BMP4, VEGF, DKK1 and Activin A)).
The effect of BIO, a Wnt signaling activator, on the effect of promoting cardiac muscle cell differentiation of KY02111, XAV939 and IWP2 was analyzed. […]

[3] = system: Human ES cell line (Kh-1 line); experiment: Cardiac muscle cell differentiation (GFP expression level, number of beating colonies); type: cell-based; conditions: N11474 10 μM during day 4 to 14
Procedure: The effect of promoting differentiation of each of the ES/iPS cells into cardiac muscle cells were confirmed for N11474 and KY02111 with the GFP expression level and number of beating colonies used as the indicators. Human ES cell line (Kh-1 line) (Suemori, H., et al., Efficient establishment of human embryonic stem cell lines and long-term maintenance with stable karyotype by enzymatic bulk passage. Biochem Biophys Res Commun. 345(3), 926-32 (2006)) (incorporated herein by reference) was seeded in a 6-well plate (Asahi Glass/5816-006: Ezview culture plate) in 1.2×10^6 cells/well and cultured for 22 days, with BMP4 (10 ng/ml) added during day 0 to 4 of culture and N11474 (10 μM) or KY02111 (5 μM) added during day 4 to 14 of culture. Human iPS cell lines (253G1, IMR90-1, IMR90-4 and RCHIPC0003) (Takahashi, K., et al., Induction of pluripotent stem cells from adult human fibroblasts by defined factors. Cell. 131(5), 861-72 (2007); Yu, J., et al., Induced pluripotent stem cell lines derived from human somatic cells. Science. 318(5858), 1917-20 (2007)) (these references are herein incorporated by reference) were cultured for the cardiac muscle cell differentiation in the same manner as for the human ES cells. […] KY02111 (5 μM) was added for 3 days during day 6 to 9 of cardiac muscle cell differentiation culture and the beating colonies of cardiac muscle cells were analyzed at day 9. […]

[4] = system: Human iPS (IMR90-4); experiment: Number of beating colonies of cardiac muscle cells; type: cell-based; conditions: N11474 10 μM during day 4 to 14
Procedure: The effect of promoting differentiation of each of the ES/iPS cells into cardiac muscle cells were confirmed for N11474 and KY02111 with the GFP expression level and number of beating colonies used as the indicators. Human ES cell line (Kh-1 line) (Suemori, H., et al., Efficient establishment of human embryonic stem cell lines and long-term maintenance with stable karyotype by enzymatic bulk passage. Biochem Biophys Res Commun. 345(3), 926-32 (2006)) (incorporated herein by reference) was seeded in a 6-well plate (Asahi Glass/5816-006: Ezview culture plate) in 1.2×10^6 cells/well and cultured for 22 days, with BMP4 (10 ng/ml) added during day 0 to 4 of culture and N11474 (10 μM) or KY02111 (5 μM) added during day 4 to 14 of culture. Human iPS cell lines (253G1, IMR90-1, IMR90-4 and RCHIPC0003) (Takahashi, K., et al., Induction of pluripotent stem cells from adult human fibroblasts by defined factors. Cell. 131(5), 861-72 (2007); Yu, J., et al., Induced pluripotent stem cell lines derived from human somatic cells. Science. 318(5858), 1917-20 (2007)) (these references are herein incorporated by reference) were cultured for the cardiac muscle cell differentiation in the same manner as for the human ES cells. The cardiac muscle cells from mouse ES cells (R1) were differentiated in accordance with the method described in the reference (Transient inhibition of BMP signaling by Noggin induces cardiomyocyte differentiation of mouse embryonic stem cells. Yuasa S, et al. Nat. Biotechnol. 2005 May; 23(5): 607-11; incorporated herein by reference). KY02111 (5 μM) was added for 3 days during day 6 to 9 of cardiac muscle cell differentiation culture and the beating colonies of cardiac muscle cells were analyzed at day 9. Monkey ES cells (CMK6.4) were cultured for cardiac muscle cell differentiation in the same manner as in the above (2).

[5] = system: monkey ES cells (CMK 6.4 cynomolgus monkey ES cell line); experiment: Cardiac muscle cell differentiation of monkey ES cells, compound day 4 to 8, GFP fluorescence at day 10 (MetaMorph); type: cell-based
Source text: Compounds substituted at the position R7 of Formula 1, which corresponds to Cl of KY02111, were synthesized and examined for the effect of promoting cardiac muscle cell differentiation in a dose-dependent manner in monkey ES cells as described in Example 2. Specifically, a vector expressing green fluorescent protein (GFP) under control of promoter of α-MHC gene, a marker of cardiac muscle cell differentiation, was introduced into monkey ES cells (CMK 6.4 cynomolgus monkey ES cell line) and the cells were seeded on 6-well culture plates (Asahi Glass/5816-006: Ezview culture plate) in 4.0×10^5 cells/well, and cultured in an IMDM-based differentiation medium for cardiac muscle cells (200 ml IMDM (Sigma) containing 50 ml bovine fetal serum (GIBCO), 2.5 ml MEM non-essential amino acid solution (Sigma), 2.5 ml penicillin-streptomycin (GIBCO), 2.5 ml 200 mM L-glutamine, 2 μl 2-mercaptoethanol). Each compound was added to the cells during day 4 to day 8 of the cardiac muscle cell differentiation culture, and the GFP fluorescence was analyzed at day 10 by using MetaMorph imaging system.

[6] = system: human ES cells (KhES-3); experiment: Percentage of cardiac muscle cells by flow cytometry with cardiac troponin T (cTnT) antibody; type: cell-based; conditions: 2 μM during days 3-8; 3 μM CHIR99021 first two days; without compound 17.9%
Procedure: (§1) The effect of promoting cardiac muscle cell differentiation of SO2031 (KY02-I) was confirmed using human ES cells (KhES-3) and iPS cells (IMR90-1) (FIG. 19). Induction of cardiac muscle cell differentiation was performed as described previously (Cell Reports, Volume 2, Issue 5, 1448-1460, 25 Oct. 2012). Specifically, IMDM (Sigma) containing 1% MEM non-essential amino acid solution (Sigma), 1% penicillin-streptomycin (Gibco), 2 mM L-glutamine (Sigma), 0.5 mM L-carnitine (Sigma), 0.001% 2-mercaptoethanol (Gibco), and 0.4% human serum albumin (Sigma) was used for culture. Cardiac muscle cell differentiation was induced in Ultra-low attachment culture dish (Corning) by floating culture. During the first two days, 3 μM CHIR99021, a WNT activator, was added, and during days 3-8 of culture, 2 μM SO2031 (KY02-I) was added. Efficiency of cardiac muscle cell differentiation was determined by calculating the percentage of cardiac muscle cells by flow cytometry using an antibody for cardiac troponin T (cTnT), a cardiac-specific marker molecule.

[7] = system: human iPS cells (IMR90-1); experiment: as above; type: cell-based; conditions: 2 μM during days 3-8; 3 μM CHIR99021 first two days; without compound 3.7%
Procedure: as §1

[8] = Solubility in medium (observation of crystals); type: physicochemical; conditions: after 24 hours
Procedure: SO2031 (KY02-I) was dissolved in 20% serum-containing medium (200 ml IMDM (Sigma) containing 50 ml bovine fetal serum (GIBCO), 2.5 ml MEM non-essential amino acid solution (Sigma), 2.5 ml penicillin-streptomycin (GIBCO), 2.5 ml 200 mM L-glutamine, 2 μl 2-mercaptoethanol) at 20 μM, and in serum-free medium (200 ml IMDM (Sigma) containing 2.5 ml MEM non-essential amino acid solution (Sigma), 2.5 ml penicillin-streptomycin (GIBCO), 2.5 ml 200 mM L-glutamine, 2 μl 2-mercaptoethanol) at 3 or 20 μM and observed after 24 hours (FIG. 20). […] As the compound is not crystallized, the concentration of the compound in the medium is stably maintained. Also, there is no possibility that the crystals affect the cells, and there is no risk that the crystals remained in the cells are transferred to and affect the host at transplantation.

Row | crystals in medium ([8]; 20% serum-containing medium at 20 μM, serum-free medium at 3 or 20 μM) | crystals in medium ([8]; serum-free medium, 3 μM) | Compound | GFP expression level [1] | increase in the GFP expression level [2] | Beating cardiac muscle cell differentiation efficiency (Control (DMSO) = 100%) ([3]; Human ES (Kh-1)) | GFP expression level ([3]; at day 14 and after of culture, FIG. 6) | Beating cardiac muscle cell differentiation efficiency (Control (DMSO) = 100%) [4] | effect of promoting cardiac muscle cell differentiation, times higher than that of KY02111 ([5]; 0.1 μM) | effect of promoting cardiac muscle cell differentiation, times higher than that of SO087 ([5]; 0.1 μM) | effect of promoting cardiac muscle cell differentiation, SO2031 versus SO3042 ([5]; 0.1 μM, 0.4 μM and 2 μM, separate experiment, FIG. 17) | effect of promoting cardiac muscle cell differentiation, times higher than that of KY02111 ([5]; 1 μM) | effect of promoting cardiac muscle cell differentiation, times higher than that of SO087 ([5]; 1 μM) | effect of promoting cardiac muscle cell differentiation, times higher than that of KY02111 ([5]; 10 μM) | effect of promoting cardiac muscle cell differentiation, times higher than that of SO087 ([5]; 10 μM) | effect of promoting cardiac muscle cell differentiation, times higher than that of KY02111 ([5]; 30 μM) | effect of promoting cardiac muscle cell differentiation, times higher than that of SO087 ([5]; 30 μM) | effect of promoting cardiac muscle cell differentiation, carbon chain length (n) series ([5]; FIG. 16) | effect compared to SO3031 (KY01-I) ([5]; low dose (0.1 μM)) | ratio of cardiac muscle cells (cTnT) [6] | ratio of cardiac muscle cells (cTnT) [7]
1 |  |  | COc1ccc2nc(NC(=O)Cc3ccc(OC)c(OC)c3)sc2c1 [N11474] | high GFP expression levels | 1000% | 1100% (N11474) | significant increase | 4000% (N11474) |  |  |  |  |  |  |  |  |  |  |  |  | 
2 | Large crystals were not observed | almost no crystal was observed | COc1ccc(CCC(=O)Nc2nc3ccc(I)cc3s2)cc1OC [SO2031, 2-(3-(3,4-dimethoxyphenyl)propanamid)-6-iodobenzothiazole] |  |  |  |  |  | about 16 times | about 5.2 times | comparable effect | ~6.3 times | ~2 times | ~2.1 times | ~1.6 times | ~1.5 times | ~1.1 times | higher effect compared to KY02111 | 2.7 times | 77.9% | 56.8%

From patent publication US9499790B2, “Method for promoting differentiation of pluripotent stem cells into cardiac muscle cells” (Kyoto University, priority 2010, dated 2016)
